Measured values from US20240199648A1, “MAP4K1 INHIBITORS” (Blueprint Medicines Corporation, priority 2021, published 2024).

biological target: T1, MAP4K1 (HPK1) (Homo sapiens, UniProt Q92918); assay: Inhibition of MAP4K1 biochemical enzymatic activity (EZReader 2 electrophoretic mobility shift assay); details: HPK1 (Invitrogen), S6K2tide 1.5 μM, 120 min; ATP 26 μM or 1000 μM (not stated which)
T1 construct: purchased Invitrogen
Text: MAP4K1 (HPK1) and relevant off-target enzymatic activity was monitored using the Perkin Elmer electrophoretic mobility shift technology platform—the EZReader 2. […] Within the linear, steady-state phase of the kinase enzymatic reaction, the mixed pool of phosphorylated (product) and non-phosphorylated (substrate) peptides was passed through the microfluidic system of the PerkinElmer EZ Reader 2, under an applied electric potential difference. The presence of the phosphate group on the product peptide provided a difference in mass and charge between that of the substrate peptide, resulting in a separation of the substrate and product pools in the sample (Perrin et al. 2010). As the product and substrate peptide mixture passes the lasers within the instrument, these pools are detected (λex=488 nm, λem=568 nm) and resolved as separate peaks. The ratio between these peaks reflects the activity of the compound at that concentration, in that well, under those conditions.
Inhibitors were dissolved in 100% DMSO at a stock concentration of 10 mM. A 100×, 10-point, 4-fold serial dilution of each inhibitor was created in 100% DMSO either manually or on a Hamilton STAR liquid handler, starting at a relevant concentration, usually 1 mM. A volume of 0.130 μL of each concentration was transferred to the relevant wells of a 384-well plate (Greiner 781 201) in diplicate using a TTPLabtech Mosquito nano-litre dispenser. Using a Multidrop Combi, the remaining constituents of the kinase reaction were added to the 130 nL of dosed compound as follows (see table below for final reaction details):
Enzyme activity assays at the ^APPKM for ATP or 1 mM ATP: In each well of a 384-well plate, 0.1-15 nM of untreated enzyme was incubated in a total of 13 μL of buffer (100 mM HEPES pH 7.5, 0.015% Brij 35, 10 mM MgCl2, 1 mM DTT) with 1.5 μM fluorescent peptid and 20-1000 μM ATP, at 25° C., for 60-180 minutes in the presence or absence of a dosed concentration series of compound (1% DMSO final concentration). The kinase reactions were stopped by the addition of 70 μl of Stop buffer (100 mM HEPES pH 7.5, 0.015% Brij 35, 35 mM EDTA and 0.2% of Coating Reagent 3 (Caliper Lifesciences)). The plates were read on a Caliper EZReader 2 as described above.

T1 sequence (Q92918 whole entry): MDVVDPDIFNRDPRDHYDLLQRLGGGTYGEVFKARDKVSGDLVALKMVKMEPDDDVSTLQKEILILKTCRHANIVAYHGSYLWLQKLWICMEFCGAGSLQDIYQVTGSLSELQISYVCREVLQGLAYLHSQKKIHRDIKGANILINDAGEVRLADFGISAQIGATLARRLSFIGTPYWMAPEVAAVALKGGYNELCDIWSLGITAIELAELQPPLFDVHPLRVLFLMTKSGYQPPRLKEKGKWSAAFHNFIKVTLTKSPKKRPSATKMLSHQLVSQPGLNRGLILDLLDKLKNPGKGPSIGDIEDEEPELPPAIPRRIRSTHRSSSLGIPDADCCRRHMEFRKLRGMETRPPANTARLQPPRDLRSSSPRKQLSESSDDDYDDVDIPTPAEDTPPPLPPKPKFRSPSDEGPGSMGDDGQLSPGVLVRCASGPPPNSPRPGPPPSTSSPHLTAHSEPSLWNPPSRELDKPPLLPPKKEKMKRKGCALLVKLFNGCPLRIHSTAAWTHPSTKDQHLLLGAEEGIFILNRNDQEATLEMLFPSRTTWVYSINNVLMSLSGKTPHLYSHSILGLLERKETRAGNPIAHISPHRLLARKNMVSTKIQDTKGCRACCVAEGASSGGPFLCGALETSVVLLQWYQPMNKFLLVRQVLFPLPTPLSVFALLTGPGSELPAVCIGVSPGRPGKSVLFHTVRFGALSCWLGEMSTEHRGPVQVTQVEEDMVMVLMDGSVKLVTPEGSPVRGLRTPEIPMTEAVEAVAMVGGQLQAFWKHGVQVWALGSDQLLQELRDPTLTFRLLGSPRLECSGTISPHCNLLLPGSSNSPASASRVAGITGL

Compound	IC50
CC(=O)N1CC(Oc2ncc(C(C)(C)N)c3cc(Nc4ccc5c(n4)[C@H](C)COC5=O)ncc23)C1 (single isomer, unassigned) [Compound 17]	0.49 nM
CC(=O)N1CC(Oc2ncc(C(C)(C)N)c3cc(Nc4ccc5c(n4)[C@@H](C)COC5=O)ncc23)C1 (single isomer, unassigned) [Compound 18]	3.06 nM
CC[C@@H](N)c1cnc(OC2CN(C(=O)[C@@H]3C[C@@H]3F)C2)c2cnc(Nc3ccc4c(n3)[C@@H](C)[C@H](C)OC4=O)cc12 (single isomer, unassigned) [Compound 58]	0.75 nM
CO[C@@H](C)C(=O)N1CC(Oc2ncc(C(C)(C)N)c3cc(Nc4ccc5c(n4)[C@@H](C)C(C)(C)OC5=O)ncc23)C1 (single isomer, unassigned) [Compound 86]	0.27 nM
CO[C@H](C)C(=O)N1CC(Oc2ncc(C(C)(C)N)c3cc(Nc4ccc5c(n4)[C@@H](C)C(C)(C)OC5=O)ncc23)C1 (single isomer, unassigned) [Compound 88]	0.21 nM
C[C@@H]1c2nc(Nc3cc4c(C(C)(C)N)cnc(OC[C@@H]5C[C@H]5C(=O)N(C)C)c4cn3)ccc2C(=O)OC1(C)C (single isomer, unassigned) [Compound 104]	0.2 nM
C[C@@H]1c2nc(Nc3cc4c(C(C)(C)N)cnc(OC[C@H]5C[C@@H]5C(=O)N(C)C)c4cn3)ccc2C(=O)OC1(C)C (single isomer, unassigned) [Compound 105]	0.2 nM
C[C@@H]1c2nc(Nc3cc4c(C(C)(C)N)cnc(OC[C@H]5C[C@H]5C(=O)N(C)C)c4cn3)ccc2C(=O)OC1(C)C (single isomer, unassigned) [Compound 106]	0.39 nM
C[C@@H]1c2nc(Nc3cc4c(C(C)(C)N)cnc(OC[C@@H]5C[C@@H]5C(=O)N(C)C)c4cn3)ccc2C(=O)OC1(C)C (single isomer, unassigned) [Compound 107]	0.31 nM
CC[C@H](N)c1cnc(O[C@H]2C[C@@H](C(=O)N3CC(OC)C3)C2)c2cnc(Nc3ccc4c(n3)[C@@H](C)C(C)(C)OC4=O)cc12 (single isomer, unassigned) [Compound 126]	1.81 nM
CCC(=O)N1CC(Oc2ncc(C(C)(C)N)c3cc(Nc4ccc5c(n4)[C@@H](C)[C@H](C)OC5=O)ncc23)C1 [Compound 2]	0.38 nM
COC[C@@](C)(N)c1cnc(OC2CN(C(=O)C3CC3)C2)c2cnc(Nc3ccc4c(n3)[C@@H](C)C(C)(C)OC4=O)cc12 [Compound 16]	0.47 nM
CC[C@@](C)(N)c1cnc(OC2CN(C(C)=O)C2)c2cnc(Nc3ccc4c(n3)[C@@H](C)[C@H](C)OC4=O)cc12 [Compound 23]	0.32 nM
CC(=O)N1CC[C@@H](Oc2ncc(C(C)(C)N)c3cc(Nc4ccc5c(n4)[C@@H](C)[C@H](C)OC5=O)ncc23)C1 [Compound 24]	0.89 nM
CC(=O)N1CC[C@H](Oc2ncc(C(C)(C)N)c3cc(Nc4ccc5c(n4)[C@@H](C)[C@H](C)OC5=O)ncc23)C1 [Compound 25]	1.38 nM
CC(=O)N1CC(C)(Oc2ncc(C(C)(C)N)c3cc(Nc4ccc5c(n4)[C@@H](C)[C@H](C)OC5=O)ncc23)C1 [Compound 26]	0.31 nM
COC(=O)N1CC(Oc2ncc(C(C)(C)N)c3cc(Nc4ccc5c(n4)[C@@H](C)[C@H](C)OC5=O)ncc23)C1 [Compound 27]	0.3 nM
CC(=O)N(C)CCOc1ncc(C(C)(C)N)c2cc(Nc3ccc4c(n3)[C@@H](C)C(C)(C)OC4=O)ncc12 [Compound 28]	0.29 nM
CC(=O)N1CC(Oc2ncc(C(C)(C)N)c3cc(Nc4ccc5c(n4)C4(CC4)C(C)(C)OC5=O)ncc23)C1 [Compound 30]	0.2 nM
CC[C@@](C)(N)c1cnc(OC2CN(C(C)=O)C2)c2cnc(Nc3ccc4c(n3)[C@@H](C)C(C)(C)OC4=O)cc12 [Compound 32]	0.17 nM
COC(=O)N1CC[C@H](Oc2ncc(C(C)(C)N)c3cc(Nc4ccc5c(n4)[C@@H](C)[C@H](C)OC5=O)ncc23)C1 [Compound 35]	0.3 nM
COC(=O)N1CC[C@@H](Oc2ncc(C(C)(C)N)c3cc(Nc4ccc5c(n4)[C@@H](C)[C@H](C)OC5=O)ncc23)C1 [Compound 36]	0.65 nM
CCOC(=O)N1CC(Oc2ncc(C(C)(C)N)c3cc(Nc4ccc5c(n4)[C@@H](C)[C@H](C)OC5=O)ncc23)C1 [Compound 37]	0.15 nM
COC(=O)N1CC(Oc2ncc(C(C)(C)N)c3cc(Nc4ccc5c(n4)[C@@H](C)C(C)(C)OC5=O)ncc23)C1 [Compound 38]	0.23 nM
C[C@@H]1c2nc(Nc3cc4c(C(C)(C)N)ccc(OC5CN(C(=O)C6CC6)C5)c4cn3)ccc2C(=O)OC1(C)C [Compound 41]	0.1 nM

Compound	IC50
C[C@@H]1c2nc(Nc3cc4c(C(C)(C)N)cnc(NC5CN(C(=O)C6CC6)C5)c4cn3)ccc2C(=O)OC1(C)C [Compound 42]	0.33 nM
CCC(=O)N1CC(Oc2ncc(C(C)(C)N)c3cc(Nc4ccc5c(n4)C4(CC4)C(C)(C)OC5=O)ncc23)C1 [Compound 43]	0.22 nM
C[C@@H]1C[C@@H]1C(=O)N1CC(Oc2ncc(C(C)(C)N)c3cc(Nc4ccc5c(n4)[C@@H](C)[C@H](C)OC5=O)ncc23)C1 [Compound 44]	0.12 nM
C[C@@H]1OC(=O)c2ccc(Nc3cc4c(C(C)(C)N)cnc(O[C@@H]5CN(C(=O)C6CC6)[C@H]5C)c4cn3)nc2[C@H]1C [Compound 45]	0.16 nM
C[C@@H]1OC(=O)c2ccc(Nc3cc4c(C(C)(C)N)cnc(OC5CN(C(=O)[C@@H]6C[C@@H]6C)C5)c4cn3)nc2[C@H]1C [Compound 46]	0.23 nM
C[C@@H]1OC(=O)c2ccc(Nc3cc4c(C(C)(C)N)cnc(OC5CN(C(=O)[C@H]6C[C@@H]6C)C5)c4cn3)nc2[C@H]1C [Compound 47]	0.18 nM
C[C@@H]1OC(=O)c2ccc(Nc3cc4c(C(C)(C)N)cnc(O[C@H]5CCN(C(=O)C6CC6)C5)c4cn3)nc2[C@H]1C [Compound 50]	0.32 nM
C[C@@H]1OC(=O)c2ccc(Nc3cc4c(C(C)(C)N)cnc(O[C@@H]5CCN(C(=O)C6CC6)C5)c4cn3)nc2[C@H]1C [Compound 51]	0.36 nM
C[C@@H]1OC(=O)c2ccc(Nc3cc4c(C(C)(C)N)cnc(OC5CN(C(=O)C6(C)CC6)C5)c4cn3)nc2[C@H]1C [Compound 52]	0.18 nM
C[C@@H]1OC(=O)c2ccc(Nc3cc4c(C(C)(C)N)cnc(OC5CN(C(=O)C6(O)CC6)C5)c4cn3)nc2[C@H]1C [Compound 55]	0.16 nM
CC[C@H](N)c1cnc(OC2CN(C(=O)[C@@H]3C[C@@H]3F)C2)c2cnc(Nc3ccc4c(n3)[C@@H](C)[C@H](C)OC4=O)cc12 [Compound 59]	0.24 nM
C[C@@H]1OC(=O)c2ccc(Nc3cc4c(C(C)(C)N)cnc(OC5CN(C(=O)C6(F)CC6)C5)c4cn3)nc2[C@H]1C [Compound 60]	0.16 nM
COCC(=O)N1CC(Oc2ncc(C(C)(C)N)c3cc(Nc4ccc5c(n4)[C@@H](C)C(C)(C)OC5=O)ncc23)C1 [Compound 61]	0.21 nM
C[C@@H]1C[C@@H]1C(=O)N1CC(Oc2ncc(C(C)(C)N)c3cc(Nc4ccc5c(n4)[C@@H](C)C(C)(C)OC5=O)ncc23)C1 [Compound 64]	0.16 nM
C[C@@H]1C[C@H]1C(=O)N1CC(Oc2ncc(C(C)(C)N)c3cc(Nc4ccc5c(n4)[C@@H](C)C(C)(C)OC5=O)ncc23)C1 [Compound 66]	0.22 nM
C[C@@H]1c2nc(Nc3cc4c(C(C)(C)N)cnc(OC5CN(C(=O)[C@@H]6C[C@@H]6C)C5)c4cn3)ccc2C(=O)OC1(C)C [Compound 67]	0.2 nM
C[C@@H]1c2nc(Nc3cc4c(C(C)(C)N)cnc(OC5CN(C(=O)[C@H]6C[C@@H]6C)C5)c4cn3)ccc2C(=O)OC1(C)C [Compound 68]	0.16 nM
C[C@@H]1OC(=O)c2ccc(Nc3cc4c(C(C)(C)N)cnc(OC5CN(C(=O)[C@H]6CC6(C)C)C5)c4cn3)nc2[C@H]1C [Compound 69]	0.14 nM
C[C@@H]1c2nc(Nc3cc4c(C(C)(C)N)cnc(OC5CN(C(=O)C6(C)CC6)C5)c4cn3)ccc2C(=O)OC1(C)C [Compound 71]	0.27 nM
C[C@@H]1OC(=O)c2ccc(Nc3cc4c(C(C)(C)N)cnc(OC5CN(C(=O)[C@H]6CCOC6)C5)c4cn3)nc2[C@H]1C [Compound 73]	0.32 nM
C[C@@H]1OC(=O)c2ccc(Nc3cc4c(C(C)(C)N)cnc(OC5CN(C(=O)[C@@H]6CCOC6)C5)c4cn3)nc2[C@H]1C [Compound 74]	0.36 nM
C[C@@H]1OC(=O)c2ccc(Nc3cc4c(C(C)(C)N)cnc(OC5CN(C(=O)[C@H]6CCCO6)C5)c4cn3)nc2[C@H]1C [Compound 75]	0.38 nM
C[C@@H]1c2nc(Nc3cc4c(C(C)(C)N)cnc(OC5CN(C(=O)C6(O)CC6)C5)c4cn3)ccc2C(=O)OC1(C)C [Compound 78]	0.43 nM
COC1(C(=O)N2CC(Oc3ncc(C(C)(C)N)c4cc(Nc5ccc6c(n5)[C@@H](C)[C@H](C)OC6=O)ncc34)C2)CC1 [Compound 79]	0.31 nM
